Measured values as given in patent US20250026776A1, “Method for Simultaneously Separating and Purifying Two Galloylated Myricitrins from Morella rubra Leaves, and Use therefor” (Zhejiang University, priority 2022, published 2025).
Like-named read-outs stand apart in the source and are kept apart here.

Experiments:
α-glucosidase [1] = assay: α-glucosidase inhibition assay (PNPG hydrolysis, absorbance at 405 nm); assay type: biochemical; conditions: α-glucosidase 0.2 U/mL, phosphate buffer pH 6.8, 37° C., PNPG substrate, IC50 calculated with SPSS, read-out: α-glucosidase inhibitory activity IC50
Procedure: The concentration of pNP in the reaction solution, as measured by a plate reader, allows for the detection of the sample's ability to inhibit the activity of α-glucosidase. […] The mixture is then incubated at 37° C. for 15 minutes, after which 20 μL of PNPG solution (2.5 mM) is added. After a 15-minute reaction at 37° C., 80 μL of Na2CO3 solution (2.5 mM) is added, and the absorbance at 405 nm (ODtest) is measured using a plate reader. […] The formula for calculating the enzyme activity inhibition rate is as follows: [formula] The inhibitory effect of the tested monomers on α-glucosidase a gradient concentrations was used to calculate the IC50 values with SPSS.

α-glucosidase [2] = conditions: cited from earlier work

| IC50 (α-glucosidase [1]) [µM] | IC50 (α-glucosidase [1]; listed as myricetin-3-O-(4″-O-galloyl)-α-L-rhamnoside) [µM] | SMILES | rank of α-glucosidase inhibitory activity among 27 dietary flavonoids (α-glucosidase [2]; comparative study of 27 dietary flavonoids (Jia Y, et al., 2019)) | rank of α-glucosidase inhibitory activity among 15 types of flavonoids (α-glucosidase [2]; report on 15 types of flavonoids (He C., et al., 2019)) |
| --- | --- | --- | --- | --- |
| 1.32 |  | CC1OC(Oc2c(-c3cc(O)c(O)c(O)c3)oc3cc(O)cc(O)c3c2=O)C(OC(=O)c2cc(O)c(O)c(O)c2)C(O)C1O [myricetin-3-O-(2″-galloyl)-α-L-rhamnoside] |  |  |
| 1.77 | 15.6 | CC1OC(Oc2c(-c3cc(O)c(O)c(O)c3)oc3cc(O)cc(O)c3c2=O)C(O)C(O)C1OC(=O)c1cc(O)c(O)c(O)c1 [myricetin-3-O-(4″-galloyl)-α-L-rhamnoside] |  |  |
| 1.77 |  | O=c1c(O)c(-c2cc(O)c(O)c(O)c2)oc2cc(O)cc(O)c12 [myricetin] | strongest inhibitor | strongest inhibitory effect |
